# Several values for one entry are separate records, joined by “and”; a condition that tells them apart may be missing. Equal entries are not always repeated.
# Assay: Mouse body weight, SW48 xenograft study with HRO761
# Format: in vivo
# Procedure: All animal studies were conducted in accordance with ethics and procedures covered by permit BS-2275 and BS-1975 issued by the Kantonales Veterinäramt Basel-Stadt and in strict adherence to guidelines of the Eidgenössisches Tierschutzgesetz and the Eidgenössische Tierschutzverordnung, Switzerland. All animal studies were approved by the internal ethics committee. All animals had access to food and water ad libitum and were identified with transponders. They were housed in a specific-pathogen-free facility in IVC racks under a 12 h–12 h light–dark cycle. To establish cell-line-derived xenograft models, 6–7-week-old female athymic nude (Crl:NU(NCr)-Foxn1^nu) or SCID-BEIGE (CB17.Cg-PrkdcscidLystbg-J/Crl) mice from Charles River were engrafted subcutaneously with 5 million tumour cells in HBSS (H6648, Sigma-Aldrich). For SNU-407, Lovo, IM95, RL95.2, Ishikawa and IGROV-1, the cells were concentrated in 50% Matrigel (354234, Corning). Patient-derived xenografts were induced and expanded by transplantation as previously described. […] For the efficacy experiment, mice were randomized into groups (n = 5–6) for a mean tumour size of 100–150 mm^3. […] Blood samples were collected on day 7 and 91. […] Tumour responses are reported with the measures of tumour volumes from the treatment start. […] Animals were randomized (n = 3) and tumour samples were collected at 0, 1, 4, 8 and 24 h on the first day and then collected 4 h after the last treatment on day 3, 8, 10, 14 (including a 24 h timepoint), 17 and 21. Tumours were excised, weighed, either frozen in liquid nitrogen and cryogenic dry pulverized with the CryoPrep system (model CP-02, Covaris) or processed to FFPE after fixation. […] On day 12, blood samples were collected for PK analysis. On the last day (3 h after the last treatment), tumours were excised, weighed, frozen in liquid nitrogen and cryogenic dry pulverized for PD analysis.
# [1] = HRO761 20mg/kg, day 0 post 1st dose
# [2] = HRO761 40mg/kg, day 0 post 1st dose
# [3] = HRO761 60mg/kg, day 0 post 1st dose
smiles,measurement,setting,value
CCc1c(N2CCN(C(=O)c3ncnc(C)c3O)CC2)c(=O)n2nc(C3=CCOCC3)nc2n1CC(=O)Nc1ccc(C(F)(F)F)cc1Cl [HRO761],"Delta BW change, individual mouse",[1],0%
same,Mean DBW,[1],0.00%
same,Mean DBW,"HRO761 20mg/kg, day 3 post 1st dose",-0.35%
same,"Delta BW change, individual mouse","HRO761 20mg/kg, day 3 post 1st dose, 20 mg/kg",1.24% and 0% (2×) and -0.78% and -2.23%
same,Mean DBW,"HRO761 20mg/kg, day 7 post 1st dose",0.52%
same,"Delta BW change, individual mouse","HRO761 20mg/kg, day 7 post 1st dose, 20 mg/kg",2.07% and 1.26% and 1.16% and -1.17% and -0.74%
same,Mean DBW,"HRO761 20mg/kg, day 10 post 1st dose",1.67%
same,"Delta BW change, individual mouse","HRO761 20mg/kg, day 10 post 1st dose, 20 mg/kg",3.32% and 6.28% and -1.54% and -1.56% and 1.86%
same,Mean DBW,"HRO761 20mg/kg, day 14 post 1st dose",1.33%
same,"Delta BW change, individual mouse","HRO761 20mg/kg, day 14 post 1st dose, 20 mg/kg",1.66% and 5.86% and -2.32% and -0.78% and 2.23%
same,Mean DBW,"HRO761 20mg/kg, day 17 post 1st dose",2.56%
same,Mean DBW,"HRO761 20mg/kg, day 21 post 1st dose",4.75%
same,Mean DBW,"HRO761 20mg/kg, day 24 post 1st dose",2.97%
same,Mean DBW,"HRO761 20mg/kg, day 28 post 1st dose",3.11%
same,Mean DBW,"HRO761 20mg/kg, day 31 post 1st dose",2.34%
same,Mean DBW,"HRO761 20mg/kg, day 35 post 1st dose",3.43%
same,Mean DBW,"HRO761 20mg/kg, day 38 post 1st dose",2.26%
same,Mean DBW,"HRO761 20mg/kg, day 42 post 1st dose",3.84%
same,Mean DBW,"HRO761 20mg/kg, day 45 post 1st dose",3.81%
same,"Delta BW change, individual mouse",[2],0%
same,Mean DBW,[2],0.00%
same,Mean DBW,"HRO761 40mg/kg, day 3 post 1st dose",-0.77%
same,"Delta BW change, individual mouse","HRO761 40mg/kg, day 3 post 1st dose, 40 mg/kg",-0.91% and 0.87% and -5.78% and -3.41% and 5.36%
same,Mean DBW,"HRO761 40mg/kg, day 7 post 1st dose",2.11%
same,"Delta BW change, individual mouse","HRO761 40mg/kg, day 7 post 1st dose, 40 mg/kg",3.18% and 5.63% and -3.25% and -1.14% and 6.13%
same,Mean DBW,"HRO761 40mg/kg, day 10 post 1st dose",1.41%
same,"Delta BW change, individual mouse","HRO761 40mg/kg, day 10 post 1st dose, 40 mg/kg",4.09% and 1.73% and -2.17% and 2.27% and 1.15%
same,Mean DBW,"HRO761 40mg/kg, day 14 post 1st dose",4.08%
same,"Delta BW change, individual mouse","HRO761 40mg/kg, day 14 post 1st dose, 40 mg/kg",5% and 7.36% and -0.36% and 4.17% and 4.21%
same,Mean DBW,"HRO761 40mg/kg, day 17 post 1st dose",3.43%
same,Mean DBW,"HRO761 40mg/kg, day 21 post 1st dose",5.66%
same,Mean DBW,"HRO761 40mg/kg, day 24 post 1st dose",6.90%
same,Mean DBW,"HRO761 40mg/kg, day 28 post 1st dose",6.44%
same,Mean DBW,"HRO761 40mg/kg, day 31 post 1st dose",5.60%
same,Mean DBW,"HRO761 40mg/kg, day 35 post 1st dose",6.99%
same,Mean DBW,"HRO761 40mg/kg, day 38 post 1st dose",6.65%
same,Mean DBW,"HRO761 40mg/kg, day 42 post 1st dose",6.89%
same,Mean DBW,"HRO761 40mg/kg, day 45 post 1st dose",7.16%
same,Mean DBW,"HRO761 40mg/kg, day 49 post 1st dose",8.78%
same,Mean DBW,"HRO761 40mg/kg, day 52 post 1st dose",8.33%
same,Mean DBW,"HRO761 40mg/kg, day 56 post 1st dose",7.63%
same,Mean DBW,"HRO761 40mg/kg, day 59 post 1st dose",8.29%
same,Mean DBW,"HRO761 40mg/kg, day 63 post 1st dose",9.98%
same,Mean DBW,"HRO761 40mg/kg, day 66 post 1st dose",10.38%
same,Mean DBW,"HRO761 40mg/kg, day 70 post 1st dose",8.92%
same,Mean DBW,"HRO761 40mg/kg, day 73 post 1st dose",8.55%
same,Mean DBW,"HRO761 40mg/kg, day 76 post 1st dose",11.97%
same,Mean DBW,"HRO761 40mg/kg, day 79 post 1st dose",7.46%
same,Mean DBW,"HRO761 40mg/kg, day 83 post 1st dose",7.38%
same,Mean DBW,"HRO761 40mg/kg, day 86 post 1st dose",9.81%
same,"Delta BW change, individual mouse",[3],0%
same,Mean DBW,[3],0.00%
same,Mean DBW,"HRO761 60mg/kg, day 3 post 1st dose",-1.52%
same,"Delta BW change, individual mouse","HRO761 60mg/kg, day 3 post 1st dose, 60 mg/kg",-2.98% and 1.63% and -3.35% and -4.6% and 1.71%
same,Mean DBW,"HRO761 60mg/kg, day 7 post 1st dose",-1.16%
same,"Delta BW change, individual mouse","HRO761 60mg/kg, day 7 post 1st dose, 60 mg/kg",-1.7% and -3.27% and 1.26% and -3.35% and 1.28%
same,Mean DBW,"HRO761 60mg/kg, day 10 post 1st dose",-1.23%
same,"Delta BW change, individual mouse","HRO761 60mg/kg, day 10 post 1st dose, 60 mg/kg",-0.43% and -6.94% and 7.11% and -5.02% and -0.85%
same,Mean DBW,"HRO761 60mg/kg, day 14 post 1st dose",0.014%
same,"Delta BW change, individual mouse","HRO761 60mg/kg, day 14 post 1st dose, 60 mg/kg",-0.43% and -2.86% and 6.69% and -4.18% and 0.85%
same,Mean DBW,"HRO761 60mg/kg, day 17 post 1st dose",-0.23%
same,Mean DBW,"HRO761 60mg/kg, day 21 post 1st dose",1.03%
same,Mean DBW,"HRO761 60mg/kg, day 24 post 1st dose",2.43%
same,Mean DBW,"HRO761 60mg/kg, day 28 post 1st dose",5.12%

# Reference: publication PMC11078746 (Nature, 2024)
